Assay results as given in patent publication US20160287540A1, “Increasing Cancer Patient Survival Time by Administration of Dithio-Containing Compounds” (BioNumerik Pharmaceuticals, Inc., priority 2015, published 2016).
Entries after “also recorded” stand apart in the source; their conditions may differ. Where two headings read alike, the source gives them in different places.

What was measured:
[1] = molecular target: T1, thioredoxin reductase (TXR) (Bos taurus, UniProt O62768); experiment: NADPH oxidation by thioredoxin reductase only; format: biochemical; details: listed as Tavocept™
T1 sequence (O62768 1-499): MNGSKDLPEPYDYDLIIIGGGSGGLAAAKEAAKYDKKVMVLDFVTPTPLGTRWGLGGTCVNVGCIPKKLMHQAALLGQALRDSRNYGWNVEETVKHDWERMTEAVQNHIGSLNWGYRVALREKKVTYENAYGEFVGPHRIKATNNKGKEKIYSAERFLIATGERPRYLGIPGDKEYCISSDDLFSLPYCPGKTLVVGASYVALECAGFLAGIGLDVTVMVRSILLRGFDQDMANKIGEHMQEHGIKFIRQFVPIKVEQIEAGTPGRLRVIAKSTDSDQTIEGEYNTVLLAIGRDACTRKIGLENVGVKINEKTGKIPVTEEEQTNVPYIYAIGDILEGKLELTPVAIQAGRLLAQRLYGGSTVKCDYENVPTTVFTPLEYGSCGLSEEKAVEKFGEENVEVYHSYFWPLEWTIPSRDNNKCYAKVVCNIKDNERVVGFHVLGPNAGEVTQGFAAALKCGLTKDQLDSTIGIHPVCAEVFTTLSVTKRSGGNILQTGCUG
Procedure: (§1) Biochemistry 21:6628-6633 (1982).
(§2) Data was then collected and plotted in Microsoft Excel. Error calculations, and graphical representations were performed in Microsoft Excel and Kaleidograph (ver. 3.5). Nonlinear data was graphically rendered using Kaleidograph. ANOVA and other statistical analyses were performed using SAS (ver. 8.2). Unless otherwise noted, significance level was set at 0.05, and error bars represent actual experimental standard deviation.

[2] = molecular target: T2, glutathione reductase (GR) (Homo sapiens, UniProt P00390); experiment: NADPH oxidation by glutathione reductase, without or with GSH; format: biochemical
T2 sequence (P00390 44-522): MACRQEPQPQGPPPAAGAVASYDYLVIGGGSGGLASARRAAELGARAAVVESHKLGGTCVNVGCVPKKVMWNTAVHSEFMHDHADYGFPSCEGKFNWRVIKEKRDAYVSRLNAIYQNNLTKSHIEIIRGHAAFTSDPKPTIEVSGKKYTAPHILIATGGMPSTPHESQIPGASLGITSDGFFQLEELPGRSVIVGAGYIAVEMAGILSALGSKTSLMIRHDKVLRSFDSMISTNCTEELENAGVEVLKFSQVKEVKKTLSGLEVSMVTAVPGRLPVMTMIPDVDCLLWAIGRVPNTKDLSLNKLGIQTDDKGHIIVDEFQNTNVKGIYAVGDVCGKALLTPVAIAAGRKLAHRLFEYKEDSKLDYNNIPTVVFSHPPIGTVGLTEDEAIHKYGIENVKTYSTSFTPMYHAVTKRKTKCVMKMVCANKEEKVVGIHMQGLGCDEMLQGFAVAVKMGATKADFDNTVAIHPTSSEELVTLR
Procedure: (§3) Table 4, below, illustrates that various Formula (I) compounds (i.e., dithiol-containing compounds) may act as alternative substrate inhibitors for the coupled GRX/GSH/GR system as measured by NADPH oxidation. The Formula (I) compound was utilized at a concentration of 0.5 mM.

[3] = molecular target: T3, coupled glutaredoxin (GRX)/glutathione (GSH)/glutathione reductase (GR) system (Homo sapiens, UniProt P35754); experiment: NADPH oxidation by coupled GRX/GSH/GR system; format: biochemical; details: in the presence of reduced glutathione and glutathione reductase
T3 sequence (P35754 1-106): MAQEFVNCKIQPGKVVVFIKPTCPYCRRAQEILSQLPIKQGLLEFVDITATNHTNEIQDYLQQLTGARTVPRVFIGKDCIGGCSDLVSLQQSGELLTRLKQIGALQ
Procedure: as §3

[4] = system: patients with advanced, Stage IIIB/IV, non-small cell lung carcinoma (NSCLC), including the adenocarcinoma sub-type; experiment: U.S. Phase II NSCLC Clinical Trial (dose-dense docetaxel/cisplatin with or without Tavocept™); format: in vivo, human; details: Tavocept™ arm vs non-Tavocept™ arm
Excerpt: As utilized herein, the term “clinical trial” or “trial”, refers to: • (i) the Japan Phase III Clinical Trial disclosed in the present invention which was utilized to show the ability of Tavocept™ (also referred to in the literature as disodium 2,2′-dithio-bis-ethane sulfonate, dimesna, or BNP7787) to prevent and/or reduce peripheral neuropathy induced by paclitaxel/cisplatin combination therapy. The incidence and severity of adverse reactions, time to their onset, etc. and the like, were compared between patients treated with Tavocept™ and those given a placebo using Quality of Life (QOL) questionnaires (i.e., Peripheral Neuropathy Questionnaire (PNQ©) and CIPN-20)) and the National Cancer Institute-Common Toxicity Criteria (NCI-CTC). The effects of Tavocept™ on the Quality of Life (QOL) of patients under anticancer treatment were also evaluated using the QOL questionnaire, EORTC QLQ-C30. Whether or not Tavocept™ would affect the efficacy of paclitaxel/cisplatin combination therapy was also evaluated based on the response rate, aggravation-free survival period, and total survival period. […] Whether or not Tavocept™ would affect the efficacy of the dose-dense docetaxel/cisplatin combination therapy was also evaluated based on the response rate, aggravation-free survival period, and total survival period. […]

[5] = system: mammalian thioredoxin reductase (TXR); details: cited from earlier work
[6] = molecular target: T2, glutathione reductase (GR); details: cited from earlier work
[7] = system: whole cells (reduction of TX/TXR and GRX substrates); experiment: Whole cell mediated disulfide reduction; format: cell-based; details: mesna in combination with cisplatin
[8] = system: non-small cell lung carcinoma (NSCLC) cell lines; experiment: Cytotoxicity in NSCLC cell lines; format: cell-based, human
[9] = system: ovarian cancer cell lines; experiment: Cytotoxicity in ovarian cancer cell lines; format: cell-based, human; details: mesna (100 μM) in combination with oxaliplatin vs oxaliplatin alone controls
brain cancer cells = experiment: Cytotoxicity in brain cancer cells; format: cell-based, human; details: oxaliplatin and mesna; observable but not statistically significant
[10] = system: coupled thioredoxin (TX)/thioredoxin reductase (TXR)/NADPH system; format: biochemical, bovine
Procedure: as §1, §2
Table5, below, illustrates that various Formula (I) compounds (i.e., disulfide-containing compounds) of the present invention can serve as alternate substrate inhibitors for the coupled thioredoxin (TX)/thioredoxin reductase (TXR)/NADPH system as measured by the oxidation of NADPH. In Table5, the Formula (I) compounds were utilized at a concentration of 0.5 mM.

SMILES	inhibition of TXR (in words) ([5]; literature studies)	inhibition of GR (in words) ([6]; literature studies)	other results
O=S(=O)([O-])CCSSCCS(=O)(=O)[O-].[Na+].[Na+] [BNP7787, disodium 2,2′-dithio-bis-ethane sulfonate]			NADPH oxidation / substrate activity with thioredoxin reductase alone, absence of TX (in words) [1]: indistinguishable from background; also recorded: not thioredoxin reductase alone; substrate activity for glutathione reductase (in words) [2]: not a substrate for glutathione reductase; activity with glutaredoxin (in words) [3]: substrate-like activity; increase in patient (median) survival, adenocarcinoma ([4]; listed as Tavocept): ~6.5 month; increase in patient (median) survival, adenocarcinoma ([4]; listed as Tavocept™): 6.54 month
N[C@@H](Cc1ccc(N(CCCl)CCCl)cc1)C(=O)O [melphalan]	irreversibly inhibited TXR in a concentration- and time-dependent manner	not GR	
O=P1(N(CCCl)CCCl)NCCCO1 (stereo not drawn) [cyclophosphamide]	irreversibly inhibited TXR in a concentration- and time-dependent manner	not GR	
O=S(=O)(O)CCS [mesna, sodium-2-mercaptoethane sulfonate]			reduction of α-lipoic acid (TX/TXR substrate) or hydroxyethyldisulfide (GRX substrate) by whole cells [7]: enhanced the reduction; cytotoxic effect of oxaliplatin ([8]; mesna (100 μM) in combination with oxaliplatin vs oxaliplatin alone controls, NSCLC): markedly enhanced the cytotoxic effect; cytotoxic effect of paclitaxel ([8]; mesna (100 μM) in combination with paclitaxel vs paclitaxel alone controls): enhanced the cytotoxic effect; cytotoxic effect of oxaliplatin [9]: markedly enhanced the cytotoxic effect; oxaliplatin cytotoxicity (brain cancer cells): lesser increase in oxaliplatin cytotoxicity
N[C@@H](CCC(=O)N[C@@H](CSSCCS(=O)(=O)O)C(=O)NCC(=O)O)C(=O)O [BNP7772]			substrate activity / NADPH oxidation by TXR in the presence of TX (in words) [10]: substrates; substrate activity for glutathione reductase (in words) [2]: functions as an alternative substrate inhibitor
NC(CCSSCCS(=O)(=O)O)C(=O)O (stereo not drawn) [BNP7768]			substrate activity / NADPH oxidation by TXR in the presence of TX (in words) [10]: substrates
NC(CSSCCS(=O)(=O)O)C(=O)O (stereo not drawn) [BNP7766]			substrate activity / NADPH oxidation by TXR in the presence of TX (in words) [10]: substrates
N[C@@H](CSSCCS(=O)(=O)O)C(=O)NCC(=O)O [BNP7776]			substrate activity / NADPH oxidation by TXR in the presence of TX (in words) [10]: substrates
N.N.[Cl][Pt][Cl] [cisplatin, cis-diamminedichloroplatinum]	irreversibly inhibited TXR	not GR	
O=C1[O][Pt]2([NH][C@@H]3CCCC[C@H]3[NH]2)[O]C1=O [oxaliplatin]			inhibition of TXR (in words) [5]: irreversibly inhibited TXR; inhibition of GR (in words) [6]: not GR
N.N.O=C([O-])C1(C(=O)[O-])CCC1.[Pt+2] [carboplatin]	could not inhibit either TXR or GR	could not inhibit either TXR or GR	
CS(=O)(=O)OCCCCOS(C)(=O)=O [busulfan]	irreversibly inhibited TXR in a concentration- and time-dependent manner	not GR	
N.N.O.[Cl][Pt+] [monohydrated complex]	irreversibly inhibited TXR	not GR	
O=C(O)CCCc1ccc(N(CCCl)CCCl)cc1 [chlorambucil]	irreversibly inhibited TXR in a concentration- and time-dependent manner	not GR	
O=NN(CCCl)C(=O)NCCCl [carmustine]	can inhibit both GR and TXR	can inhibit both GR and TXR	
O=P1(NCCCl)OCCCN1CCCl (stereo not drawn) [ifosfamide]	inhibited TXR		
N.N.[Cl][Pt+2][Cl] [transplatin]	irreversibly inhibited TXR	not GR	
